In patent US5298488A, “CM-chitin derivatives and use thereof” (Fuji Photo Film Co., Ltd., priority 1990, dated 1994):
No end group written: not given here. sulfated CM‑chitin = sulfated carboxymethyl-chitin (CM-chitin), conjugated to the peptide; sulfated succinylated CM‑chitin = sulfated succinylated CM-chitin

Assays:
[1] = system: human plasma rich in platelet; assay: Platelet coagulation-inhibitory activity in vitro, transmittance by aggregometer; format: cell-based; details: 37° C., 3 minutes preincubation; for Platelet Coagulation-Inhibitory Action IC50, ADP Stimulation: ADP stimulation (50 μM ADP solution); for Platelet Coagulation-Inhibitory Action IC50, Collagen Stimulation: collagen stimulation (200 μg/ml collagen solution)
Procedure: The platelet coagulation-inhibitory effect of the CM-chitin derivative of the present invention was assayed, in vitro, using human plasma rich in platelet. The experimental method will be described below.
To fresh human blood, there was added 1/9 volume of a 3.8% sodium citrate solution, the resulting mixture was centrifuged (1000 rpm; for 10 minutes) and the upper layer was separated as a plasma rich in platelet. A lyophilized CM-chitin derivative was dissolved in physiological saline to give a plurality of solutions having various concentrations ranging from 0 to 1.5 mg/ml. Each of the solutions (25 μ1) was added to 200 µl of the plasma, incubated at 37° C. for 3 minutes, then a 50 μM of ADP (adenosine diphosphate) solution or a 200 μg/ml collagen solution was added to determine the extent of coagulation in terms of transmittance determined by an aggregometer.
Rate of Coagulation Inhibition=(1-T/T .)×100%
T . : transmittance observed when a salt of CM-chitin derivative was not added.
T : transmittance observed when a salt of CM-chitin derivative was added.

vitronectin = assay: Cell adhesion-inhibitory test against vitronectin (competitive assay, number of adhered cells); format: cell-based, human; details: endothelium cells of blood vessel, 37° C., one hour, 0 control 249
Excerpt: (§1) A method for determining the activity of the CM-chitin derivatives of the present invention for inhibiting adhesion of cells to fibronectin or vitronectin will be described below. The competitive assays used herein have widely been employed tin the field of biochemistry and are detailed in, for instance, "Method in Enzymology", 1981, 82, pp. 803-831; and J. P. KOKAI Nos. Hei 1-309682 and Hei 2-174797.
(§2) Commercially available fibroneotin (derived from human; purchased from Seikaqaku Kogyo K. K.) and vitronectin (derived from human; purchased from Funakoshi Co., Ltd.) each was diluted to 1.0 μ1/ml and 2.0 μ1/ml with PBS (NaH2 PO4 0.005 M+NaCl 0.07 M), 0.5 ml of the resulting diluted solution was dispensed into a plastic plate having 24 wells and incubated at 37° C. overnight to perform coating of the plate. Then bovine serum albumin (BSA 1%) was added followed by incubation at 37° C. for one hour for inhibiting the occurrence of nonspecific adsorption, then washing with PBS in the usual manner and sufficient drainage to give an adsorption plate.
[…] Each of the solutions (0.25 ml) was dispensed to the plate prepared above, 0.25 ml of a suspension of endothelium cells of blood vessel (4×10^6 cells/ml) was added to the plate and incubated at 37° C. for one hour to thus cause cohesion of the cells. The plate was washed three times with DMEM medium to remove non-adhesive cells, then the adhered cells were peeled off with a 0.025% EDTA trypsin solution and stained with a 2% Trypan Blue solution to determine the number of the adhered cells.

fibronectin = assay: Cell adhesion-inhibitory test against fibronectin (competitive assay, number of adhered cells); format: cell-based, human; details: endothelium cells of blood vessel, 37° C., one hour, 0 mg/ml control 160
Excerpt: as §1, §2
A CM-chitin derivative obtained through lyophilization was diluted with Dulbecco's Modified Eagles Medium (hereunder referred to as "DMEM") to give solutions of the CM-chitin derivative having concentrations of 0, 0.25, 0.5, 1.0 and 1.5 mg/ml respectively. Each of the solutions (0.25 ml) was dispensed to the plate prepared above, 0.25 ml of a suspension of endothelium cells of blood vessel (4×10^6 cells/ml) was added to the plate and incubated at 37° C. for one hour to thus cause cohesion of the cells. The plate was washed three times with DMEM medium to remove non-adhesive cells, then the adhered cells were peeled off with a 0.025% EDTA trypsin solution and stained with a 2% Trypan Blue solution to determine the number of the adhered cells.

[2] = concentration 10 mg/ml (so in the source)
[3] = concentration 50 mg/ml (so in the source)
[4] = concentration 100 mg/ml (so in the source)
[5] = concentration 300 mg/ml (so in the source)

| Substance | Platelet Coagulation-Inhibitory Action IC50, ADP Stimulation [1] [µg/mL] | Platelet Coagulation-Inhibitory Action IC50, Collagen Stimulation [1] [µg/mL] | Cell Adhesion-Inhibitory effect Against Vitronectin (number of adhered cells) (vitronectin; [2]) [cell/well] | Cell Adhesion-Inhibitory effect Against Vitronectin (number of adhered cells) (vitronectin; [3]) [cell/well] | Cell Adhesion-Inhibitory effect Against Vitronectin (number of adhered cells) (vitronectin; [4]) [cell/well] | Cell Adhesion-Inhibitory effect Against Vitronectin (number of adhered cells) (vitronectin; [5]) [cell/well] | Cell Adhesion-Inhibitory effect Against Fibronectin (number of adhered cells) (fibronectin; concentration 0.5 mg/ml) [cell/well] | Cell Adhesion-Inhibitory effect Against Fibronectin (number of adhered cells) (fibronectin; concentration 1.0 mg/ml) [cell/well] | Cell Adhesion-Inhibitory effect Against Fibronectin (number of adhered cells) (fibronectin; concentration 1.5 mg/ml) [cell/well] | Cell Adhesion-Inhibitory effect Against Fibronectin (number of adhered cells) (fibronectin; concentration .25 mg/ml) [cell/well] |
| --- | --- | --- | --- | --- | --- | --- | --- | --- | --- | --- |
| Sulfated CM-Chitin-Gly-Arg-Gly-Asp-Ser ({sulfated CM‑chitin}-GRGDS) [CM--chitin derivative-14] | 12 | 3 | 107 | 78 | 43 | 34 | 93 | 68 | 41 | 111 |
| Sulfated Succinylated CM-Chitin-Gly-Arg-Gly-Asp-Ser ({sulfated succinylated CM‑chitin}-GRGDS) [CM--chitin derivative-16] | 12 | 2 | 122 | 81 | 63 | 40 | 81 | 75 | 50 | 103 |
